The text below walks through data of patent publication US20230312752A1 (Brown University, priority 2021, published 2023).

As usually defined, the Kd is the free concentration of one partner at which half of the binding sites on the other are occupied at equilibrium, for simple one-to-one binding.

Entries after “also recorded” stand apart in the source; their conditions may differ. Where a name gives a salt, the structure may show the parent alone. Read-outs that look alike come from different tables or passages of the source.

One assay addresses CDK7 (Homo sapiens, UniProt P50613). As to conditions: cited from earlier work.
In a further assay the target is CDK6 (Homo sapiens, UniProt Q00534). Details: key to the marks not given beside the values. As to conditions: cited from earlier work.
Another assay concerns the target CDK4 (Homo sapiens, UniProt P11802). As to conditions: cited from earlier work.
In a further assay the target is CDK1 (Homo sapiens, UniProt P06493). As to conditions: cited from earlier work.
In the next assay the target is CDK2 (Homo sapiens, UniProt P24941). As to conditions: cited from earlier work.
The next assay addresses CDK3 (Homo sapiens, UniProt Q00526). As to conditions: cited from earlier work.
The next assay has as its system TMPRSS2, CTSL and FURIN. The assay is classed as cell-based, human.
The test system of assay [1] is ACE2. In kind it is cell-based, human.
The test system of a further assay is ERK and AKT. The assay is classed as cell-based, human.
Assay [2] concerns pseudovirus with the G614 S protein. The assay is classed as cell-based, SARS-CoV-2.
For assay [3], the system named is pseudovirus with the ancestral G614 S protein. In kind it is cell-based, SARS-CoV-2.
Assay [4] concerns influenza and other viral infections. As to conditions: cited from earlier work.
The next assay has as its target Chitinase 1 (CHIT1) (Homo sapiens, UniProt Q13231). As to conditions: cited from earlier work.
The target in another assay is CDK8 (Homo sapiens, UniProt P49336). Details: key: + is used to indicate the potency of the inhibitor; ++++ > +++ > ++ > +; + is used to indicate the potency of the inhibitor; ++++ > +++ > ++ > +; + is used to indicate the potency of the inhibitor; ++++ > +++ > ++ > +; + is used to indicate the potency of the inhibitor; ++++ > +++ > ++ > +; ◯ refers to compounds with inhibitory effects on the related isoform, but without specific value. As to conditions: cited from earlier work.

The next assay deals with CDK9 (Homo sapiens, UniProt P50750). Details: key: + is used to indicate the potency of the inhibitor; ++++ > +++ > ++ > +; + is used to indicate the potency of the inhibitor; ++++ > +++ > ++ > +; + is used to indicate the potency of the inhibitor; ++++ > +++ > ++ > +; + is used to indicate the potency of the inhibitor; ++++ > +++ > ++ > +; ◯ refers to compounds with inhibitory effects on the related isoform, but without specific value. As to conditions: cited from earlier work.

Assay [5] concerns ACE2, TMPRSS2, and CTSL. Nature of the assay: mRNA levels in normal human small airway epithelial cells (qRT-PCR). In kind it is cell-based. As to conditions: normal HSAEC, rhCHI3L1 500 ng/mL, 24 hours. The procedure: HSAEC were incubated with the noted concentrations of recombinant rhCHI3L1 for 24 hours. The levels of mRNA encoding ACE2, TMPRSS2, and CTSL were assessed via qRT-PCR. The levels are expressed in relationship to GAPDH controls. *p<0.05 (Student's t-test).
Total cellular RNA was obtained using TRIzol reagent (ThermoFisher Scientific) followed by RNA extraction using RNeasy Mini Kit (Qiagen, Germantown, MD) according to the manufacturer's instructions. mRNA was measured and used for real time (RT)-PCR as described previously.^79,80 The primer sequences used in these studies are summarized in Table 1. Ct values of the test genes were normalized to the internal housekeeping gene […].
In the present study, normal HSAEC were incubated with 0, 100 ng/mL, or 500 ng/mL of rhCHI3L1 for 24 hours at 37° C. The levels of mRNA encoding ACE2, TMPRSS2, and CTSL were assessed via qRT-PCR and expressed in relationship to GAPDH controls.
For orientation: Quantitative PCR measures a nucleic acid by following its amplification.

The test system of assay [6] is pseudovirus containing the S protein (D614 and G614 variants). In kind it is cell-based. As to conditions: Calu-3 cells.
The test system of assay [7] is pseudoviruses with delta S proteins. The assay is classed as cell-based, SARS-CoV-2.
Assay [8] has as its system ACE2. Nature of the assay: Immunocytochemical evaluation of ACE2 in Calu-3 cells. In kind it is cell-based, human.
For assay [9], the system named is ACE2, TMPRSS2, and CTSL. Nature of the assay: mRNA levels in A549 cells (qRT-PCR). As to conditions: 24 hr. In kind it is cell-based, human. The procedure:
Cells were incubated with rhCHI3L1 from a commercial source (R&D Inc.) and rhCHI3L1 generated at Brown University (Brown) and compared to vehicle controls. mRNA was then extracted and the levels of mRNA for ACE2 and CTSL were evaluated by real time qRT-PCR. Levels were expressed in relationship to GAPDH controls. *p<0.05; **p<0.01 (Student's t-test).
A549 cells were incubated with the noted concentrations of rhCHI3L1 for the note amounts of time. The levels of mRNA encoding ACE2, TMPRSS2, and CTSL were assessed via qRT-PCR. The statistics compare cells incubated with vehicle control (nothing tested, NT) and cells incubated with 250 ng/ml of rhCHI3L1. […]
Total cellular RNA was obtained using TRIzol reagent (ThermoFisher Scientific) followed by RNA extraction using RNeasy Mini Kit (Qiagen, Germantown, MD) according to the manufacturer's instructions. mRNA was measured and used for real time (RT)-PCR as described previously.^79,80 The primer sequences used in these studies are summarized in Table 1. […]
In the first study, A549 cells were incubated with rhCHI3L1 from a commercial source (R&D Inc.) and rhCHI3L1 generated at Brown University (Brown). The cells were incubated for 24 hr with stimulation of rhCHI3L1 (500 ng/mL) at 37° C. mRNA was then extracted and the levels of mRNA for ACE2 and CTSL were evaluated by real time qRT-PCR and compared to vehicle controls. […]

The target of a further assay is human and mouse CHI3L1. Nature of the assay: Ligand binding affinity of FRG by ELISA. As to conditions: both human and mouse CHI3L1. The procedure: The murine monoclonal anti-CHI3L1 antibody (FRG) was generated using peptide antigen (amino acid 223-234 of human CHI3L1) as immunogen through Abmart Inc (Berkeley Heights, NJ). […] HEK-293T cells were transfected with the FRG construct using Lipofectamine™ 3000 (Invitrogen, #L3000015). Supernatant was collected for 7 days, and the antibody was purified using a protein A column (ThermoFisher scientific, #89960). Ligand binding affinity and sensitivity were assessed using ELISA techniques.
Background: In an ELISA, binding on a coated surface is turned into a signal by an enzyme label.

The mark [10] stands for this setting: Calu-3 cells, rhCHI3L1 250 ng/mL, 24 hours, vs vehicle.
The mark [11] stands for this setting: Calu-3 cells, 24 hours, FRG or KSM 250 ng/mL, RT-PCR.

Chain of CDK7 (P50613 whole entry): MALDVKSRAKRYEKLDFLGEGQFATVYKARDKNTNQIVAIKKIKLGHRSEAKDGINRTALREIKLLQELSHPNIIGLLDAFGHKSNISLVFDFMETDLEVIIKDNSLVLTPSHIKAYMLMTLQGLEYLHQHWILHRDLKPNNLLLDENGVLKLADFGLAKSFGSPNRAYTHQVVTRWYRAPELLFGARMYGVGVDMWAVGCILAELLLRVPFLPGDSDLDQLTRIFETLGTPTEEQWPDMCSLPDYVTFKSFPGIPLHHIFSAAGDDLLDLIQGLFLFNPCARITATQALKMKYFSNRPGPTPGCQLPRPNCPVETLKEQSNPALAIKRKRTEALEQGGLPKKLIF
Chain of CDK7 (P51946 whole entry, further chain): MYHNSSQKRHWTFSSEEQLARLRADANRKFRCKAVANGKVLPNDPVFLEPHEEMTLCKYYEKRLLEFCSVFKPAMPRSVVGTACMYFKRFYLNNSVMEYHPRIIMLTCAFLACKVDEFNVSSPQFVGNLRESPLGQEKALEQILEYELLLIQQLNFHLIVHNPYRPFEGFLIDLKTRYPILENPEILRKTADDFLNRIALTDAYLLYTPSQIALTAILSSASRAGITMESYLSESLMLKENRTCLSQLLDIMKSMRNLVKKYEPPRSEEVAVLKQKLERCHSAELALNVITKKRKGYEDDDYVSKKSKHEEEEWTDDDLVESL
Chain of CDK7 (P51948 whole entry, further chain): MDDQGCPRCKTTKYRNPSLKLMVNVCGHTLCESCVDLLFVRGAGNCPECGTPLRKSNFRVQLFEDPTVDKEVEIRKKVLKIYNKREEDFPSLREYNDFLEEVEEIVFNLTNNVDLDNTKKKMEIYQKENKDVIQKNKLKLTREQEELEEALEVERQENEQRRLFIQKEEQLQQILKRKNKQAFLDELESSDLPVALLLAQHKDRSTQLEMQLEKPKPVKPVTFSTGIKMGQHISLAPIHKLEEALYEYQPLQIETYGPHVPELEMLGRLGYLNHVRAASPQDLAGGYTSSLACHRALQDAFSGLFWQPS
Chain of CDK8 (P24863 whole entry, canonical isoform): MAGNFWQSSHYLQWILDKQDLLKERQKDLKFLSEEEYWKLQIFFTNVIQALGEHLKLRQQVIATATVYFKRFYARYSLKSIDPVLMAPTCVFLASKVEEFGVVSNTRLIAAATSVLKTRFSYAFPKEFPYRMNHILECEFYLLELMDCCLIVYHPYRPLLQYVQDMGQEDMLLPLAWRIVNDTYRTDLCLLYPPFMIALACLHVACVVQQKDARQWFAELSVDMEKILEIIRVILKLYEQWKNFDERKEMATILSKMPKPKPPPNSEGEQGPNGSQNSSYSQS
Chain of CDK8 (P49336 whole entry, canonical isoform): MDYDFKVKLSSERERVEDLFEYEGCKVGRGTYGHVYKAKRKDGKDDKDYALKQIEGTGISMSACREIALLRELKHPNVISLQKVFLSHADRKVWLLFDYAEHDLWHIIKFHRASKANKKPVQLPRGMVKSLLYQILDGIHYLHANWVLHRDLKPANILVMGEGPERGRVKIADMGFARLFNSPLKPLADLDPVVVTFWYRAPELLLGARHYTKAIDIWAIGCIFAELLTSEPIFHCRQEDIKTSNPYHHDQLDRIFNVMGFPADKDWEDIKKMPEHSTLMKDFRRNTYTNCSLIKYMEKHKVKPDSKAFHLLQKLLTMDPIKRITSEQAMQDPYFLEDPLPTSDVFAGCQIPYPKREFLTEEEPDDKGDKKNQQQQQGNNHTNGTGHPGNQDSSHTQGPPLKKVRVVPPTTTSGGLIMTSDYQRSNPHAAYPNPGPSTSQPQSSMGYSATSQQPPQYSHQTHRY
Chain of CDK1 (P06493 whole entry, species assumed): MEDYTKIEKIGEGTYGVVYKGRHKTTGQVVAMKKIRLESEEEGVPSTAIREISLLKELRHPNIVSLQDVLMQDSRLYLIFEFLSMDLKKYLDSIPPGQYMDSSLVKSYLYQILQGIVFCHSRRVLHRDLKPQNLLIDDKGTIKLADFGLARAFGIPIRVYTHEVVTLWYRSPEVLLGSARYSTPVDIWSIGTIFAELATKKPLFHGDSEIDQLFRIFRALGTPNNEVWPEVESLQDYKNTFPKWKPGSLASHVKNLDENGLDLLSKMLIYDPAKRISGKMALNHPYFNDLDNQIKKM
Chain of CDK1 (P14635 whole entry partner, species assumed): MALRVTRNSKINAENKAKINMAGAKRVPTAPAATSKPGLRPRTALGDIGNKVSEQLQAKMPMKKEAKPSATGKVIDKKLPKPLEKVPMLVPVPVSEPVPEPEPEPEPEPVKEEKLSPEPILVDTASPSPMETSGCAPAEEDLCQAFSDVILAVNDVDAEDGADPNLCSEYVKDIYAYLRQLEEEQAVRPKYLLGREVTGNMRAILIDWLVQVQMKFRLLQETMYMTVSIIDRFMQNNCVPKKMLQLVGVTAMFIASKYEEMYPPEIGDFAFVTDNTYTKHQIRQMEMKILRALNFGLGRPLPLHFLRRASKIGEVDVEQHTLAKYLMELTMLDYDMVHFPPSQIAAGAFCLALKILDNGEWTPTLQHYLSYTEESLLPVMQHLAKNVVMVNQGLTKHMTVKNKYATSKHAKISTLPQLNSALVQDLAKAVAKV
Chain of CDK6 (Q00534 whole entry): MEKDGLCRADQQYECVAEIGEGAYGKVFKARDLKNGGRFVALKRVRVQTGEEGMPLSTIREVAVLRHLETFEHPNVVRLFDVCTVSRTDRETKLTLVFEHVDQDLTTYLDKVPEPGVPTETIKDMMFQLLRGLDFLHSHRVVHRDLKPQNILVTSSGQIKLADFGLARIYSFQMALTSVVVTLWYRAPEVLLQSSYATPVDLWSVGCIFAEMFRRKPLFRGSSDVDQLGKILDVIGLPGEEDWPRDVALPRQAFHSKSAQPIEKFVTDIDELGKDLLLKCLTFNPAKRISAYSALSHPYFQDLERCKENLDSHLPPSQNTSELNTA
Chain of CDK6 (P30281 whole entry, further chain): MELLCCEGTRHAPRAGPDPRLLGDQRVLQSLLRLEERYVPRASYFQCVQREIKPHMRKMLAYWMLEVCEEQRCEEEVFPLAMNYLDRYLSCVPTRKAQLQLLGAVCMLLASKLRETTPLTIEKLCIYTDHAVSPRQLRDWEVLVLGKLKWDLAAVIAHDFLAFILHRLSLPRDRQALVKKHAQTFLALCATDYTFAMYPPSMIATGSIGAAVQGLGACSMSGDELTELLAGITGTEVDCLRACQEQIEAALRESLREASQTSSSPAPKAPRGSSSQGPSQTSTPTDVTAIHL
Chain of Chitinase 1 (CHIT1) (Q13231 22-466): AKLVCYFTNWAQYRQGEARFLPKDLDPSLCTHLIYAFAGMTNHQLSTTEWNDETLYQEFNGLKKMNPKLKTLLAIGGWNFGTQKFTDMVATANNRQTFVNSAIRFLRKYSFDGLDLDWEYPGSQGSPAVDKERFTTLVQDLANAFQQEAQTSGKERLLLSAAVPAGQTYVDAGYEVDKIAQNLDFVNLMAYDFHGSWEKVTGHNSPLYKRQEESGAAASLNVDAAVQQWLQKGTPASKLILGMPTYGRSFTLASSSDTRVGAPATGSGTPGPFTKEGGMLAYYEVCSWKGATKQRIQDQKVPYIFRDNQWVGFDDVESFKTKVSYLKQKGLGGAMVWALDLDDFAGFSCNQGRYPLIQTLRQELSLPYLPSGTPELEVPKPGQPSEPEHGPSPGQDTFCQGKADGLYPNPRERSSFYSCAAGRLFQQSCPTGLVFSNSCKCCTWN
Chain of CDK3 (P24864 whole entry): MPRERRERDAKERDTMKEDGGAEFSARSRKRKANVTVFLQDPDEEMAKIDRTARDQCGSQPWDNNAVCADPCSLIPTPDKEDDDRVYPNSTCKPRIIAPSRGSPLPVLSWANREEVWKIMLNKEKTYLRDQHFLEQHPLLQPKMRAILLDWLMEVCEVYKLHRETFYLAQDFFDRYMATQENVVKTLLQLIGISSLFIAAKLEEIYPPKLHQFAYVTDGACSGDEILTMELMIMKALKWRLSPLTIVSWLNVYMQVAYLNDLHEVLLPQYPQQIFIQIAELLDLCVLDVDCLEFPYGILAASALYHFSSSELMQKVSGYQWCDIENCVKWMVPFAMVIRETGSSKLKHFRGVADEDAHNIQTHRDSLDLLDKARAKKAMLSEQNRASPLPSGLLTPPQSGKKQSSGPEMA
Chain of CDK3 (Q00526 whole entry): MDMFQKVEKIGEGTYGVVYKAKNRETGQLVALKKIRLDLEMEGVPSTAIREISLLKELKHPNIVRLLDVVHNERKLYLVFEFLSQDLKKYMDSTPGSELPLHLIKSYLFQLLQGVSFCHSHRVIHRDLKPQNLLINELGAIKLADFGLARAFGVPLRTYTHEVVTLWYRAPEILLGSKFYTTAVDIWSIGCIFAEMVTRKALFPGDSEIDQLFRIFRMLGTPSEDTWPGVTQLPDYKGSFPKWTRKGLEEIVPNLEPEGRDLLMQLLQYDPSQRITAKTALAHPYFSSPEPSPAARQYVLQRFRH
Chain of CDK4 (P11802 whole entry, species assumed): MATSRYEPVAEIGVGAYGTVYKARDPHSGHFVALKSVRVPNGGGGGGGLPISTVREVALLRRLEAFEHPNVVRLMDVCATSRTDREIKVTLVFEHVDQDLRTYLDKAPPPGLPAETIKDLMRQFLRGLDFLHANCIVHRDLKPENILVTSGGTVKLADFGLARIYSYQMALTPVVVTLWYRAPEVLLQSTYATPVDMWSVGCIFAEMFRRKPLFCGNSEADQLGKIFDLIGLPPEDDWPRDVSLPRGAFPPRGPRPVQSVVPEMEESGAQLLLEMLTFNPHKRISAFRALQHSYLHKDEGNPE
Chain of CDK4 (P24385 whole entry partner, species assumed): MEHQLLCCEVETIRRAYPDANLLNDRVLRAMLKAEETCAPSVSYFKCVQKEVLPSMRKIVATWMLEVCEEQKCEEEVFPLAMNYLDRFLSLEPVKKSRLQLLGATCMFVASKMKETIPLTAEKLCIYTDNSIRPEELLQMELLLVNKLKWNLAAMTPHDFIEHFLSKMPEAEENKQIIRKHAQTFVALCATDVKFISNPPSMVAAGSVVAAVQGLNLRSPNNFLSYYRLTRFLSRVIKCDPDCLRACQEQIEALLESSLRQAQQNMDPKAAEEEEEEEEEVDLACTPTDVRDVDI

As for `CN1CC[C@H](c2c(O)cc(O)c3c(=O)cc(-c4ccccc4Cl)oc23)[C@H](O)C1` [Flavopiridol HCl, Flavopiridol Hydrochloride], on CDK7, the “Inhibitory potency CDK7” value is on record as “+”. The “Inhibitory potency CDK6” value at CDK6 was “+++”. Moreover, the “Inhibitory potency CDK4” value at CDK4 was “+++”. Further, the “Inhibitory potency CDK1” value on CDK1 is “+++”. At CDK2, the “Inhibitory potency CDK2” value is recorded as “+++”. In addition, the “Inhibitory potency CDK3” value on CDK3 is given as “+”.

Take `C[C@H]1O[C@H](O[C@H]2[C@H](O)[C@@H](O)[C@@H](O)[C@H](O)[C@@H]2O)[C@@H](N)C[C@@H]1NC(=N)C(=O)O` [Kasugamycin, 2-amino-2-[(2R,3S,5S,6R)-5-amino-2-methyl-6-[(2R,3S,5S,6S)-2,3,4,5,6-pentahydroxycyclohexyl]oxyoxan-3-yl]iminoacetic acid]: the “basal and rhCHI3L1-stimulated expression of TMPRSS2, CTSL and FURIN” value in the assay with TMPRSS2, CTSL and FURIN is recorded as “potently decreased”. Moreover, in the assay with ACE2 [1], the “ability of rhCHI3L1 to stimulate ACE2 mRNA accumulation” value is on record as “potently inhibited; also recorded: potently ameliorated” and the “levels of basal ACE2 expression” value is “diminished”. Moreover, in the assay with ERK and AKT, the “CHI3L1 stimulated MAPK and AKT activation” value was “abrogated”. For the same molecule, in assay [2], the “pseudovirus uptake when exogenous CHI3L1 was not administered” value was “diminished”. Also, the rCHI3L1-augmented pseudovirus uptake entry in [3] was “abrogated”. Besides, the “influenza and other viral infections” value in assay [4] is reported as “inhibit”. The “anti-Chitinase 1 (CHIT1) activities” value at Chitinase 1 (CHIT1) is listed as “strong”.

Take LY2857785: the “Inhibitory potency CDK8” value at CDK8 is “+++”. Also, on CDK7, the “Inhibitory potency CDK7” value is “+”. Further, the “Inhibitory potency CDK9” value at CDK9 was “+++”.

Turning to “rhCHI3L1: recombinant human CHI3L1 (chitinase 3 like 1) protein, from R&D Inc. or generated at Brown University”, the “levels of mRNA encoding TMPRSS2, CTSL and FURIN” value in the assay on TMPRSS2, CTSL and FURIN (setting [10]) is on record as “significantly upregulated”. Moreover, the “levels of mRNA encoding ACE2, TMPRSS2, and CTSL” value is reported as “significantly upregulated” in the assay with ACE2, TMPRSS2, and CTSL [5]; “significantly upregulated” in the assay with ACE2, TMPRSS2, and CTSL [9] (rhCHI3L1 250 or 500 ng/mL). Further, the “levels of mRNA encoding ACE2” value with ACE2 [1] (setting [10]) was “significantly upregulated”. Also, in assay [6] (rCHI3L1 24 hours, GFP), the “cellular integration of S proteins” value is “stimulated”. Moreover, the delta pseudovirus infection result in assay [7] is listed as “augmented”. Also, in assay [3], the uptake of pseudovirus entry is recorded as “potent stimulator”. Moreover, the “Calu-3 cell ACE2 accumulation” value in the assay on ACE2 [8] (CHI3L1 250 ng/mL, double labeled ICC) is recorded as “augmented”. In the assay on ACE2, TMPRSS2, and CTSL [9] (rhCHI3L1 500 ng/mL, 37° C.), the “levels of mRNA encoding Ace2 and cathepsin L (CTSL)” value was “significantly upregulated”.

B1: FRG: murine monoclonal anti-CHI3L1 antibody raised against amino acid 223-234 of human CHI3L1; heavy chain SEQ ID NO: 13, light chain SEQ ID NO: 14 (antibody, V domains shown)
VH: QIQLVQSGPELKKPGETVKISCKASGYTFTNYGMNWVKQAPGKGLKWMGWINTYTGEPTYADDFKGRFAFSLETSASTAYLQINNLRNEDMSTYFCARLGYGKFYVMDYWGQGTSVTVSS
VL: DVVMTQTPLSLPVSLGDQASISCRSSQSLVHSNGNTYLHWYLQKPGQSPKLLIYKVSNRFSGVPDRFSGSGSGTDFTLKISRVEAEDLGVYFCSQSTHVTWTFGGGTKLEIK
Take B1: the “basal and rhCHI3L1-stimulated expression of TMPRSS2, CTSL and FURIN” value in the assay with TMPRSS2, CTSL and FURIN (setting [11]) is given as “potently decreased”. For the same molecule, in the assay with ACE2 [1] (setting [11]), the “levels of basal ACE2 expression” value is on record as “modestly diminished”. Further, in the assay with ACE2 [1] (Calu-3 cells, rhCHI3L1 24 hours, FRG or KSM 250 ng/mL, RT-PCR), the “ability of rhCHI3L1 to stimulate ACE2 mRNA accumulation” value was “potently inhibited; also recorded: potently ameliorated”. In assay [6] (rCHI3L1 250 ng/mL 24 hours, GFP by flow cytometry), the “CHI3L1 effect on cellular integration of S proteins” value was “abrogated”. Moreover, the delta pseudovirus infection entry in assay [7] is listed as “abrogated”. For the same molecule, the “pseudovirus uptake when exogenous CHI3L1 was not administered” value in assay [2] is recorded as “diminished”. In addition, in [3], the “pseudovirus uptake when exogenous rCHI3L1 was not administered” value is “diminished” and the rCHI3L1-augmented pseudovirus uptake entry is “abrogated”. On human and mouse CHI3L1, this molecule returned a Kd of approximately 1.1 nM. In the assay with ACE2 [8] (at baseline and or after the administration of rCHI3L1, ICC, FIG. 18), the “expression of ACE2” value was “abrogated”.
